Consider four compounds from patent publication US20060110468A1, “Herbal formulations for arthritis” (priority 2004, published 2006).

Structures are written as SMILES.

Experiment [1] deals with writhing activity of mice induced by acetic acid. The experiment in a line: Acetic acid writhing test in mice. The settings on record: one hour after administration; for The number of writhing episodes: mice. Type of experiment: in vivo, ICR mice. The procedure:
In the writhing test, acetic acid is injected into the intraperitoneal cavity of mice. This induces acute inflammatory pain characterized by a contraction wave of abdominal musculature through stretching of the hind limbs that is called writhing, and the number of writhing episodes is evaluated.
Male and female ICR mice weighing 18 g to 25 g were fasted for one day before the test. […] The animals were then placed in individual 101×15 cm Plexiglas observation chambers for a 10-min acclimatization period. Acetic acid, 0.8% in 0.85% saline was injected i.p. into each mouse the animals were then returned into their respective transparent chambers.
The animals were then observed for a specific period (15 or 20 mins) and the number of writhing episodes was counted. For scoring purpose, a writhe was indicated by a contraction wave of abdominal musculature with simultaneous stretching of at least one hind limb.
(§1) Values are presented as mean±SD.

For experiment [2], the system named is rat paw edema evoked by carrageenan. The experiment in a line: Carrageenan induced paw edema test in rats. It counts as in vivo. The conditions noted are these: 10 mg/kg. The procedure:
(§2) The anti-inflammatory effects of above extracts of the present invention were investigated in acute inflammatory models induced by either carrageenan or egg white.
(§3) Rats received a subplantar injection of carrageenan (0.1 ml of a 1% suspension in 0.85% saline; Sigma Chemical Co., St Louis, Mo., USA) or egg white (0.1 ml of a 10% solution in 0.85% saline) in the left hind paw. The total volume injected was 0.1 ml.
(§4) Indomethacin was administered to animals in the positive control group.
(§5) The volume of paw edema (in ml) was measured in each animal using a plethysmometer (Plethysmometer 7150, Ugo Basile, Italy) to a precision of two decimal places. The measurements were made immediately before and 2, 4, 6, 24 h after the carrageenan injection or 1, 2, 3, and 4 h after the injection of egg white. The swelling rate of paw was the percentage difference in paw volume and calculated by the following equation: Swelling rate (%)=(A−B)×100/B, where A represents the paw volume at different time points after injection, and B represents the paw volume before injection.
as §1
(In general: In the carrageenan paw model, swelling and tenderness develop within hours.)

The test system of experiment [3] is rat paw edema evoked by egg white. Description: Egg white induced paw edema test in rats. Type of experiment: in vivo. The settings on record: 8 mg/kg. The procedure:
as §2, §3, §4, §5, §1

On to `COC1=C[C@@H]2[C@@H]3Cc4ccc(OC)c(O)c4[C@]2(CCN3C)CC1=O` [Sinomenine], for which the “The number of writhing episodes” value in experiment [1] (0.0375 g/kg) amounted to 25 ± 9. Moreover, the “inhibition to the writhing activity of mice induced by acetic acid (in words)” value in experiment [1] (tetrahydropalmatine 0.09 g/kg, sinomenine 0.0375 g/kg, capsule 12.7 g/kg and 25.50 g/kg) is reported as “significant compared to control group”.
For `COc1ccc2c(c1)c(CC(=O)O)c(C)n2C(=O)c1ccc(Cl)cc1` [Indomethacin], the “inhibition of swelling evoked by carrageenan (in words)” value in experiment [2] (positive control, not observed at 24 hrs after stimulation) is “inhibited the swelling within 7 hrs after drug administration”. In addition, in experiment [2] (rat, 2 hour), the “Percentage change in swelling after injecting carrageenan (%) 2 hour” value was 12.27 ± 4.61 %. The “Percentage change in swelling after injection of carrageenan (%) 2 hour” value in experiment [2] (rat, 2 hour (Table 13)) is 12.27 ± 4.61 %. Moreover, the “Percentage change in swelling after injecting carrageenan (%) 4 hour” value in experiment [2] (rat, 4 hour) is on record as 15.12 ± 7.85 %. For the same compound, in experiment [2] (rat, 4 hour (Table 13)), the “Percentage change in swelling after injection of carrageenan (%) 4 hour” value is reported as 15.12 ± 7.85 %. In addition, the “Percentage change in swelling after injecting carrageenan (%) 6 hour” value in experiment [2] (rat, 6 hour) turned out to be 15.32 ± 7.84 %. For the same compound, the “Percentage change in swelling after injection of carrageenan (%) 6 hour” value in experiment [2] (rat, 6 hour (Table 13)) is reported as 15.32 ± 7.84 %. Moreover, the “Percentage change in swelling after injecting carrageenan (%) 24 hour” value in experiment [2] (rat, 24 hour) came out at 35.36 ± 14.65%. Moreover, the “Percentage change in swelling after injection of carrageenan (%) 24 hour” value in experiment [2] (rat, 24 hour (Table 13)) was found to be 35.36 ± 14.65%.
For `COc1cc2c(cc1OC)[C@@H]1Cc3ccc(OC)c(OC)c3CN1CC2` [Tetrahydropalmatine], the “The number of writhing episodes” value in experiment [1] (0.090 g/kg) is listed as 11 ± 6.
Regarding `C[C@@H]1C[C@H]2[C@@H]3CCC4=CC(=O)C=C[C@]4(C)[C@@]3(F)[C@@H](O)C[C@]2(C)[C@@]1(O)C(=O)CO` [Dexamethasone], in experiment [3] (1 hr), the “Swelling percentage of paw volume after stimulation (%) 1 hr” value is reported as 26.66 ± 3.34 %. Besides, in experiment [3] (2 hr), the “Swelling percentage of paw volume after stimulation (%) 2 hr” value is recorded as 19.31 ± 5.83 %. In experiment [3] (3 hr), the “Swelling percentage of paw volume after stimulation (%) 3 hr” value was determined as 9.12 ± 4.42 %. For the same compound, the “Swelling percentage of paw volume after stimulation (%) 4 hr” value in experiment [3] (4 hr) is 7.49 ± 4.08%.
